{"source": "patent US20230255934A1", "about": "“NURR1 RECEPTOR MODULATORS AND USES THEREOF” (The Regents of the University of California, priority 2020, published 2023)", "key": {"[1]": {"biological_target": "T1, full-length Nurr1 (NBRE response element) (Mus musculus, UniProt Q06219)", "T1 construct": "a cell line derived from dopaminergic neurons which endogenously expresses full length Nurr1 and its target genes; endogenous in cells; host or cells: MN9D TET-ON cells", "T1 sequence (Q06219 whole entry)": "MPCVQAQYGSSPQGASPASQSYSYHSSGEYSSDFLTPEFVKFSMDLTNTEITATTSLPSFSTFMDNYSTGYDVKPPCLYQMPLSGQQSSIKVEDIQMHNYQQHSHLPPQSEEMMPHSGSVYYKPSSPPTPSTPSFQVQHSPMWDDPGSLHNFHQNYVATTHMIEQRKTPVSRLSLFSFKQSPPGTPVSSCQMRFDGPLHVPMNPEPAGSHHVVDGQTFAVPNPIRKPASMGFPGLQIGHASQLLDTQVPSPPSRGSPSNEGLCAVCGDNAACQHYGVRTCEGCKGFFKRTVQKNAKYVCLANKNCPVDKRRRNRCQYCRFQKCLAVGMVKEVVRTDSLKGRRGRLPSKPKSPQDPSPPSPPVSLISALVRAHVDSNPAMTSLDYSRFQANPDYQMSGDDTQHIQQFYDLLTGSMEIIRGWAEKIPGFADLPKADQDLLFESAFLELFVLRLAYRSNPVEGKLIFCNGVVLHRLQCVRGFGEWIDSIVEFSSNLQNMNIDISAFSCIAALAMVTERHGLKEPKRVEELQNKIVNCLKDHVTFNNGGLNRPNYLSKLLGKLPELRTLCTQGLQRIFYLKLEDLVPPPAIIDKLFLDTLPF", "test": "Full-length Nurr1 NBRE luciferase reporter assay in MN9D cells", "format": "cell-based", "settings": "6 h treatment", "procedure": "Luciferase Reporter Assays. These assays were executed using standard protocols. MN9D TET-ON cells (P5) were grown for 60-72 h (see above) before being seeded at 1-10^5 cell/well in 24-well plate in DMEM/F12+5% TET-ON approved FBS 3 h before transfection. Cells were transfected using Lipofectamine 2000 (Invitrogen) and plasmid DNAs according to manufacturer's instructions. Lipofectamine/DNA complexes were prepared in Opti-Mem medium (Gibco) and incubated with cells overnight. The Nurr1-LBD_Gal4-DBD expressing plasmid was prepared by subcloning the Nurr1 LBD fragment into […] plasmid (Clontech) containing GAL4 DBD. The reporter plasmid pGL4.35 (luc2P/9XGAL4 UAS/Hygro) Vector (Promega) contains nine repeats of GAL4 UAS (Upstream Activator Sequence) and drives transcription of the luciferase reporter gene luc2P in response to binding of Nurr-LBD_Gal4-DBD chimeric protein. The pRL-null (Promega) plasmid expressing renilla luciferase was used as an internal control. […] Alternatively, cells were co-transfected with the reporter plasmid NBREx3-POMC-Luc containing three copies of the NBRE sequence ([NT] ID NO:23)) subcloned into the pXP1-luc plasmid containing the minimal (positions -34 to +63) POMC promoter as described previously^7, and the pRL-null plasmid. […] Transfected cells were treated with increasing concentrations of 5-chloroindole or vehicle only for 6 h, after which time the media was aspirated and luciferase activity was measured. Cells from each well were incubated for 15 min with 220 μL/well of Dual-Glo® Luciferase Reagent (Promega) at room temperature upon rotation on the orbital shaker. […] Resulting solutions were transferred to a white opaque 96-well plate (65 μL/well; 3 wells/sample) and firefly luciferase activity was measured using Veritas Microplate Luminometer (Turner BioSystems, Sunnyvale, Calif.). […] Renilla luciferase activity was measured after 20 min of incubation of the plate inside the luminometer. Experimental values are expressed as the average of firefly/renilla luciferase activity±standard deviation (for three independent biological replicates). […]"}, "[2]": {"test_system": "Nurr1 (siRNA knockdown) in MN9D cells", "test": "Nurr1 knockdown (siRNA) assay with qPCR of target genes in MN9D cells", "format": "cell-based, mouse", "settings": "10 μM, 24 h, Nurr1 siRNA vs control siRNA", "procedure": "Nurr1 knockdown (siRNA) assays were completed according to standard protocols. Briefly, MN9D cells were resuspended in DMEM/F-12 with 5% FBS at 1·10^6 cells/mL, and reverse-transfected with either control or Nurr1 siRNAs (40 nM final concentration) by combining 4 mL of cell suspension with 1 mL of Opti-MEM containing 200 nM siRNA and 10 μL Lipofectamine 2000 (Invitrogen, cat #:11668019). The resulting cell suspension was plated on poly-D-lysine treated six-well plates at 2.5 mL/well, and allowed to incubate for 24 h at 37° C., in 5% CO2 incubator. After 24 hours, the cells were trypsinized, resuspended in DMEM/F-12 with 5% FBS at 2·10^5 cells/mL, mixed with equal volume of 20 μM 5-chloroindole in the same media containing 0.2% DMSO (prepared by diluting DMSO stock of 5-chloroindole (10 mM) in warm DMEM/F-12 with 5% FBS; for the DMSO control an equivalent volume of DMSO was used instead of the compound stock), and immediately re-plated on poly-D-lysine pre-treated 24-well plates at 1-10^5 cells/well and incubated as above. After 24 hours, total RNA was isolated and the target gene transcription assay (qPCR) was performed as described above. Nurr1 siRNA N1 were purchased from Sigma (Cat No. SASI_Mm02_00322368), and the sequences were as follows: 5′-GAA UCA GCU UUC UUA GAA U[dT][dT]-3′ (SEQ ID NO:17) (sense) and 5′-AUU CUA AGA AAG CUG AUU C[dT][dT]-3′ (SEQ ID NO:18) (antisense). […]"}}, "note": "Entries after “also recorded” stand apart in the source; their conditions may differ."}
{"smiles": "Clc1ccc2[nH]ccc2c1", "note": "[5-chloroindole]", "values": [{"measurement": "Luciferase production, full-length Nurr1 NBRE reporter", "setting": "[1]", "result": "stimulates production of luciferase; also recorded: stimulates the activity of Nurr1"}, {"measurement": "Effect on expression of Th and Vmat2 with knockdown of Nurr1", "setting": "[2]", "result": "significantly reduced in the presence of Nurr1 siRNA, but not control siRNA; also recorded: inhibited by siRNA specific for Nurr1"}]}
